Assay: xn = mol fraction of the nth substance listed
Settings: Fluid (supercritical or subcritical phases), vibrating tube

CCCCCO [pentan-1-ol] + O=C=O
Settings | mass density [kg/m3]
312.96 K, 512 kPa, x2 = 0 | 799.65
312.96 K, 1022 kPa, x2 = 0 | 800.04
312.96 K, 1998 kPa, x2 = 0 | 800.77
312.96 K, 3005 kPa, x2 = 0 | 801.53
312.96 K, 4003 kPa, x2 = 0 | 802.28
312.96 K, 5002 kPa, x2 = 0 | 803.02
312.96 K, 6018 kPa, x2 = 0 | 803.76
312.96 K, 6994 kPa, x2 = 0 | 804.49
312.96 K, 8008 kPa, x2 = 0 | 805.21
312.96 K, 9005 kPa, x2 = 0 | 805.93
312.96 K, 10008 kPa, x2 = 0 | 806.66
312.96 K, 11008 kPa, x2 = 0 | 807.37
312.96 K, 12000 kPa, x2 = 0 | 808.07
312.96 K, 13024 kPa, x2 = 0 | 808.78
312.96 K, 13987 kPa, x2 = 0 | 809.45
312.96 K, 15014 kPa, x2 = 0 | 810.14
312.96 K, 15991 kPa, x2 = 0 | 810.8
312.96 K, 17019 kPa, x2 = 0 | 811.48
312.96 K, 17991 kPa, x2 = 0 | 812.12
312.96 K, 19007 kPa, x2 = 0 | 812.79
312.96 K, 19992 kPa, x2 = 0 | 813.44
312.96 K, 21031 kPa, x2 = 0 | 814.1
312.96 K, 22041 kPa, x2 = 0 | 814.76
312.96 K, 23014 kPa, x2 = 0 | 815.41
312.96 K, 24003 kPa, x2 = 0 | 816.04
312.96 K, 25037 kPa, x2 = 0 | 816.73
313.09 K, 6030 kPa, x2 = 0.3624 | 824
313.09 K, 6997 kPa, x2 = 0.3624 | 825.21
313.09 K, 8012 kPa, x2 = 0.3624 | 826.4
313.09 K, 9018 kPa, x2 = 0.3624 | 827.51
313.09 K, 10006 kPa, x2 = 0.3624 | 828.5
313.09 K, 11027 kPa, x2 = 0.3624 | 829.51
313.09 K, 12043 kPa, x2 = 0.3624 | 830.52
313.09 K, 13029 kPa, x2 = 0.3624 | 831.45
313.09 K, 13978 kPa, x2 = 0.3624 | 832.37
313.09 K, 15011 kPa, x2 = 0.3624 | 833.36
313.09 K, 16002 kPa, x2 = 0.3624 | 834.27
313.09 K, 17008 kPa, x2 = 0.3624 | 835.17
313.09 K, 17989 kPa, x2 = 0.3624 | 836.08
313.09 K, 19002 kPa, x2 = 0.3624 | 837
313.09 K, 20008 kPa, x2 = 0.3624 | 837.88
313.09 K, 21025 kPa, x2 = 0.3624 | 838.76
313.09 K, 21983 kPa, x2 = 0.3624 | 839.58
313.09 K, 23039 kPa, x2 = 0.3624 | 840.51
313.09 K, 24001 kPa, x2 = 0.3624 | 841.34
313.1 K, 7022 kPa, x2 = 0.4651 | 831.11
313.1 K, 8019 kPa, x2 = 0.4651 | 832.63
313.1 K, 9041 kPa, x2 = 0.4651 | 834.14
313.1 K, 10006 kPa, x2 = 0.8067 | 827.85
313.1 K, 10013 kPa, x2 = 0.4651 | 835.54
313.1 K, 10035 kPa, x2 = 0.9757 | 716.11
313.1 K, 11006 kPa, x2 = 0.8067 | 834.45
313.1 K, 11016 kPa, x2 = 0.4651 | 836.96
313.1 K, 11020 kPa, x2 = 0.9757 | 742.56
313.1 K, 11992 kPa, x2 = 0.9757 | 762.5
313.1 K, 12018 kPa, x2 = 0.4651 | 838.32
313.1 K, 12019 kPa, x2 = 0.8067 | 840.12
313.1 K, 13002 kPa, x2 = 0.8067 | 845.06
313.1 K, 13005 kPa, x2 = 0.4651 | 839.67
313.1 K, 13014 kPa, x2 = 0.9757 | 779.62
313.1 K, 13996 kPa, x2 = 0.8067 | 849.67
313.1 K, 14022 kPa, x2 = 0.9757 | 793.9
313.1 K, 14035 kPa, x2 = 0.4651 | 841.03
313.1 K, 15002 kPa, x2 = 0.9757 | 806.06
313.1 K, 15010 kPa, x2 = 0.4651 | 842.33
313.1 K, 15017 kPa, x2 = 0.8067 | 854.05
313.1 K, 16001 kPa, x2 = 0.9757 | 817.16
313.1 K, 16018 kPa, x2 = 0.4651 | 843.63
313.1 K, 16028 kPa, x2 = 0.8067 | 858.11
313.1 K, 17009 kPa, x2 = 0.8067 | 861.86
313.1 K, 17011 kPa, x2 = 0.4651 | 844.89
313.1 K, 17026 kPa, x2 = 0.9757 | 827.46
313.1 K, 17998 kPa, x2 = 0.9757 | 836.37
313.1 K, 18010 kPa, x2 = 0.4651 | 846.15
313.1 K, 18017 kPa, x2 = 0.8067 | 865.48
313.1 K, 18996 kPa, x2 = 0.4651 | 847.39
313.1 K, 19027 kPa, x2 = 0.8067 | 868.98
313.1 K, 19034 kPa, x2 = 0.9757 | 845.17
313.1 K, 19996 kPa, x2 = 0.8067 | 872.2
313.1 K, 20005 kPa, x2 = 0.9757 | 852.85
313.1 K, 20038 kPa, x2 = 0.4651 | 848.66
313.1 K, 20988 kPa, x2 = 0.4651 | 849.83
313.1 K, 20988 kPa, x2 = 0.9757 | 860.09
313.1 K, 21011 kPa, x2 = 0.8067 | 875.4
313.1 K, 21994 kPa, x2 = 0.9757 | 867.1
313.1 K, 22004 kPa, x2 = 0.8067 | 878.43
313.1 K, 22029 kPa, x2 = 0.4651 | 851.07
313.1 K, 22839 kPa, x2 = 0.9757 | 872.7
313.1 K, 22988 kPa, x2 = 0.4651 | 852.24
313.1 K, 22990 kPa, x2 = 0.8067 | 881.33
313.11 K, 3017 kPa, x2 = 0.0816 | 805.83
313.11 K, 4040 kPa, x2 = 0.0816 | 806.66
313.11 K, 5020 kPa, x2 = 0.0816 | 807.44
313.11 K, 6033 kPa, x2 = 0.0816 | 808.27
313.11 K, 6980 kPa, x2 = 0.0816 | 809.01
313.11 K, 8003 kPa, x2 = 0.0816 | 809.81
313.11 K, 9050 kPa, x2 = 0.0816 | 810.62
313.11 K, 10006 kPa, x2 = 0.0816 | 811.35
313.11 K, 10023 kPa, x2 = 0.9216 | 783.1
313.11 K, 11007 kPa, x2 = 0.9216 | 796.3
313.11 K, 11029 kPa, x2 = 0.0816 | 812.13
313.11 K, 12014 kPa, x2 = 0.9216 | 807.61
313.11 K, 12040 kPa, x2 = 0.0816 | 812.89
313.11 K, 13034 kPa, x2 = 0.0816 | 813.62
313.11 K, 13034 kPa, x2 = 0.9216 | 817.54
313.11 K, 14013 kPa, x2 = 0.9216 | 826.1
313.11 K, 14032 kPa, x2 = 0.0816 | 814.36
313.11 K, 15008 kPa, x2 = 0.0816 | 815.08
313.11 K, 15032 kPa, x2 = 0.9216 | 834.15
313.11 K, 16011 kPa, x2 = 0.9216 | 841.25
313.11 K, 16019 kPa, x2 = 0.0816 | 815.8
313.11 K, 17000 kPa, x2 = 0.9216 | 847.91
313.11 K, 17024 kPa, x2 = 0.0816 | 816.51
313.11 K, 18011 kPa, x2 = 0.9216 | 854.26
313.11 K, 18058 kPa, x2 = 0.0816 | 817.22
313.11 K, 18990 kPa, x2 = 0.0816 | 817.88
313.11 K, 19003 kPa, x2 = 0.9216 | 860.12
313.11 K, 20009 kPa, x2 = 0.9216 | 865.74
313.11 K, 20043 kPa, x2 = 0.0816 | 818.6
313.11 K, 20983 kPa, x2 = 0.9216 | 870.88
313.11 K, 21042 kPa, x2 = 0.0816 | 819.28
313.11 K, 22024 kPa, x2 = 0.0816 | 819.97
313.11 K, 23035 kPa, x2 = 0.0816 | 820.66

Reference: the NIST ThermoML archive (doi:10.1016/j.jct.2007.07.005)
